{"source": "PubChem BioAssay (NCI)", "test_in_all_cases": "NCI-60 cell line screen, 48 h", "key": {"DMS 273 small cell lung": {"tested_on": "DMS 273 small cell lung"}, "HCC-2998 colon": {"tested_on": "HCC-2998 colon"}, "M19-MEL melanoma": {"tested_on": "M19-MEL melanoma"}, "NCI/ADR-RES ovarian": {"tested_on": "NCI/ADR-RES ovarian"}, "SF-295 CNS": {"tested_on": "SF-295 CNS"}, "SN12C renal": {"tested_on": "SN12C renal"}, "SNB-19 CNS": {"tested_on": "SNB-19 CNS"}, "SR leukemia": {"tested_on": "SR leukemia"}, "UACC-62 melanoma": {"tested_on": "UACC-62 melanoma"}, "UO-31 renal": {"tested_on": "UO-31 renal"}}, "note": "Several values for one entry are separate records, joined by “and”; a condition that tells them apart may be missing. Identical values can stand only once.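 The compound was tested at five concentrations on cells cultured in 96-well plates, with a 48-hour exposure period. At the GI50, growth is halved. TGI: total growth inhibition.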"}
{"smiles": "O=P1(NCCCl)OCCC(OO)N1CCCl", "note": "(configuration not stated)", "values": [{"measurement": "TGI", "setting": "DMS 273 small cell lung", "value": "> 100", "unit": "µM"}, {"measurement": "TGI", "setting": "HCC-2998 colon", "value": "> 100", "unit": "µM"}, {"measurement": "TGI", "setting": "M19-MEL melanoma", "value": "> 100", "unit": "µM"}, {"measurement": "TGI", "setting": "NCI/ADR-RES ovarian", "value": "> 100", "unit": "µM"}, {"measurement": "TGI", "setting": "SF-295 CNS", "value": "> 100", "unit": "µM"}, {"measurement": "TGI", "setting": "SN12C renal", "value": "> 100", "unit": "µM"}, {"measurement": "TGI", "setting": "SNB-19 CNS", "value": "> 100", "unit": "µM"}, {"measurement": "TGI", "setting": "SR leukemia", "value": "> 100", "unit": "µM"}, {"measurement": "TGI", "setting": "UACC-62 melanoma", "value": 63.7, "unit": "µM"}, {"measurement": "TGI", "setting": "UO-31 renal", "value": "> 100", "unit": "µM"}]}
{"smiles": "N[C@@H](Cc1ccc(N(CCCl)CCCl)cc1)C(=O)O", "values": [{"measurement": "GI50", "setting": "DMS 273 small cell lung", "value": 6.97, "unit": "µM"}, {"measurement": "TGI", "setting": "DMS 273 small cell lung", "value": "33.6 µM and 68.3 µM"}, {"measurement": "GI50", "setting": "HCC-2998 colon", "value": "75.5 µM and 22.1 µM"}, {"measurement": "TGI", "setting": "HCC-2998 colon", "value": "> 100 µM and 62.2 µM and 95.4 µM"}, {"measurement": "GI50", "setting": "M19-MEL melanoma", "value": 15.9, "unit": "µM"}, {"measurement": "TGI", "setting": "M19-MEL melanoma", "value": "45.3 µM and 102 µM"}, {"measurement": "GI50", "setting": "NCI/ADR-RES ovarian", "value": "30.6 µM and 32 µM"}, {"measurement": "TGI", "setting": "NCI/ADR-RES ovarian", "value": "> 100 µM and 146 µM"}, {"measurement": "GI50", "setting": "SF-295 CNS", "value": "3.95 µM and 16 µM"}, {"measurement": "TGI", "setting": "SF-295 CNS", "value": "49.2 µM and 72.1 µM and 128 µM"}, {"measurement": "GI50", "setting": "SN12C renal", "value": "3.73 µM and 9.39 µM"}, {"measurement": "TGI", "setting": "SN12C renal", "value": "> 100 µM and > 68.3 µM and 161 µM"}, {"measurement": "GI50", "setting": "SNB-19 CNS", "value": "30.4 µM and 23 µM"}, {"measurement": "TGI", "setting": "SNB-19 CNS", "value": "> 100 µM and 41.6 µM and 204 µM"}, {"measurement": "TGI", "setting": "SR leukemia", "value": "39.1 µM and 71.4 µM"}, {"measurement": "GI50", "setting": "UACC-62 melanoma", "value": "8.7 µM and 6.39 µM"}, {"measurement": "TGI", "setting": "UACC-62 melanoma", "value": "> 100 µM and 22.2 µM and 46.2 µM"}, {"measurement": "GI50", "setting": "UO-31 renal", "value": "12.9 µM and 29.6 µM"}, {"measurement": "TGI", "setting": "UO-31 renal", "value": "65.2 µM and 81.2 µM and 123 µM"}]}
{"smiles": "COc1nc(C(Cl)(Cl)Cl)c(Cl)c(OC)c1Cl", "values": [{"measurement": "TGI", "setting": "DMS 273 small cell lung", "value": 75.3, "unit": "µM"}, {"measurement": "TGI", "setting": "HCC-2998 colon", "value": "> 58.3 µM and 95 µM"}, {"measurement": "GI50", "setting": "M19-MEL melanoma", "value": 25.3, "unit": "µM"}, {"measurement": "TGI", "setting": "M19-MEL melanoma", "value": "58.5 µM and 67 µM"}, {"measurement": "TGI", "setting": "NCI/ADR-RES ovarian", "value": 58.4, "unit": "µM"}, {"measurement": "TGI", "setting": "SF-295 CNS", "value": "> 56.9 µM and 75.3 µM"}, {"measurement": "TGI", "setting": "SN12C renal", "value": "> 52.9 µM and 74 µM"}, {"measurement": "GI50", "setting": "SNB-19 CNS", "value": "> 40.8", "unit": "µM"}, {"measurement": "TGI", "setting": "SNB-19 CNS", "value": "> 59.3 µM and 59.4 µM"}, {"measurement": "GI50", "setting": "SR leukemia", "value": "> 45.5", "unit": "µM"}, {"measurement": "TGI", "setting": "SR leukemia", "value": "> 72.1 µM and 82.6 µM"}, {"measurement": "GI50", "setting": "UACC-62 melanoma", "value": "> 50.4", "unit": "µM"}, {"measurement": "TGI", "setting": "UACC-62 melanoma", "value": "> 88.8 µM and 54.5 µM"}, {"measurement": "TGI", "setting": "UO-31 renal", "value": "> 64.3 µM and 75.4 µM"}]}
{"smiles": "CSc1nnc2n1-c1ccccc1SCC2", "values": [{"measurement": "TGI", "setting": "DMS 273 small cell lung", "value": "> 100", "unit": "µM"}, {"measurement": "TGI", "setting": "HCC-2998 colon", "value": "> 100", "unit": "µM"}, {"measurement": "TGI", "setting": "M19-MEL melanoma", "value": "> 100", "unit": "µM"}, {"measurement": "TGI", "setting": "SF-295 CNS", "value": "> 100", "unit": "µM"}, {"measurement": "TGI", "setting": "SN12C renal", "value": "> 100", "unit": "µM"}, {"measurement": "TGI", "setting": "SNB-19 CNS", "value": "> 100", "unit": "µM"}, {"measurement": "TGI", "setting": "SR leukemia", "value": "> 100", "unit": "µM"}, {"measurement": "TGI", "setting": "UACC-62 melanoma", "value": "> 100", "unit": "µM"}, {"measurement": "TGI", "setting": "UO-31 renal", "value": "> 100", "unit": "µM"}]}
